{"source": "patent US8383888B1", "about": "“Plants and plant products useful for biofuel manufacture and feedstock, and methods of producing same” (University of Kentucky Research Foundation, priority 2008, dated 2013)", "key": {"Arabidopsis ixr mutants": {"tested_on": "Arabidopsis ixr mutants", "conditions": "cited from earlier work"}, "Arabidopsis thaliana": {"tested_on": "Arabidopsis thaliana", "experiment": "Growth of plants on plates containing isoxaben", "assay_type": "in vivo", "conditions": "2 nM isoxaben in plates", "description": "Studies with a plant (Arabidopsis thaliana) expressing a CESA-1 with a A903V mutation (“qxr” or “ags”) have shown significant reorganization of the mutant cell wall. Feedback between the gene mutation and cell wall structure was determined by FTIR analysis of the polysaccharide fingerprint region. The following conclusions were ascertained; firstly, the qxr mutant has aberrant root hair formation, which can be observed using light microscopy and have been described for cell wall gene deletion alleles. The highly elongated cell shape of root hairs has been used as model to define molecular players in cell elongation and a plausible explanation for the altered root hair phenotype is consistent with a defect in cell wall structure. […] Next, the inventors explored whether treating qxr mutants with the cellulose inhibitor isoxaben at minute doses induced a synergistic effect."}, "plants": {"tested_on": "plants", "conditions": "previous studies; cited from earlier work"}}}
{"smiles": "CCC(C)(CC)c1cc(NC(=O)c2c(OC)cccc2OC)on1", "note": "[isoxaben, N-(3-[1-ethyl-1-methylpropyl]-5-isoxazolyl)-2,6,dimethoxybenzamide]", "values": [{"measurement": "resistance of mutants to the herbicide", "setting": "Arabidopsis ixr mutants; ixr1-1 and ixr1-2 mutations", "value": "high level of resistance"}, {"measurement": "drug tolerance of ixr1-1 relative to wild type", "setting": "Arabidopsis ixr mutants; ixr1-1 homozygotes", "value": "approximately 300 times"}, {"measurement": "resistance of mutants to the cellulose synthesis inhibitor", "setting": "Arabidopsis ixr mutants; ixr1-2 and ixr2-1, forward chemical genetics screen", "value": "conferring resistance"}, {"measurement": "effect on qxr mutant plants", "setting": "Arabidopsis thaliana; qxr (CESA-1 A903V)", "value": "dramatically swollen organs"}, {"measurement": "effect on wild type plants (swollen organs)", "setting": "Arabidopsis thaliana; wild type", "value": "did not"}, {"measurement": "lethal dose", "setting": "plants", "value": 5, "unit": "nM"}]}
